Data on twelve molecules can be found in publication PMC10311946 (ACS chemical biology, 2023).

Several values for one entry are separate records, joined by “and”; a condition that tells them apart may be missing. Equal entries are not always repeated. Entries after “also recorded” stand apart in the source; their conditions may differ. Where two headings read alike, the source gives them in different places.

One series has as its system FabH C112Q. Type of series: biochemical, Escherichia coli. The conditions noted are these: for Initial rate of hydrolysis to CoA or oxa(dethia)CoA / Initial rate, malonyl-CoA → acetyl-CoA/acetoacetyl-CoA: FabH C112Q, 10 μM enzyme; for stability with the FabH C112Q mutant: over 24 hours, 10 μM FabH C112Q.
The subject of another series is E. coli FabH. To be noted: for Initial rate of hydrolysis to CoA or oxa(dethia)CoA / Initial rate, malonyl-CoA → acetyl-CoA/acetoacetyl-CoA: FabH wt, 10 μM FabH; for time to reaction completion: FabH; for activating potential for FabH decarboxylation of malonyl-CoA to acetoacetyl-CoA: FabH incubated with 125 μM analog then 250 μM malonyl-CoA, HPLC progress curves.
The target in series [1] is T1, FabH (Escherichia coli, UniProt P0A6R0). Nature of the series: continuous UV-Vis assay for the production of acetoacetyl-CoA. Type of series: biochemical. The conditions noted are these: for effect on FabH activity with acetyl-CoA and malonyl-CoA as substrates: UV-Vis assays.
Series [2] is described as follows: non-enzymatic stability/hydrolysis in buffer followed by HPLC. Type of series: physicochemical. To be noted: for Non-enzymatic hydrolysis rate: pH 6 and 7.
In series [3] the target is fluoroacetyl-CoA hydrolase. To be noted: cited from earlier work.
The test system of the next series is citrate synthase. The conditions noted are these: cited from earlier work.
The target in series [4] is T1, FabH. To be noted: cited from earlier work.
The test system of another series is phosphotransacetylase. To be noted: cited from earlier work.
Setting [5] is: pH 8, ~250 μM substrate or analog.
[6] abbreviates: competition with malonyl-CoA binding assumed, pH 8.0, 50 mM Mg2+.
The mark [7] stands for this setting: pH 6, ~250 μM substrate or analog.
The mark [8] stands for this setting: pH 7, ~250 μM substrate or analog.
Where [9] appears, read: varying malonyl-CoA, acetyl-CoA at 125 μM, substrate inhibition model.

T1 sequence (P0A6R0 whole entry): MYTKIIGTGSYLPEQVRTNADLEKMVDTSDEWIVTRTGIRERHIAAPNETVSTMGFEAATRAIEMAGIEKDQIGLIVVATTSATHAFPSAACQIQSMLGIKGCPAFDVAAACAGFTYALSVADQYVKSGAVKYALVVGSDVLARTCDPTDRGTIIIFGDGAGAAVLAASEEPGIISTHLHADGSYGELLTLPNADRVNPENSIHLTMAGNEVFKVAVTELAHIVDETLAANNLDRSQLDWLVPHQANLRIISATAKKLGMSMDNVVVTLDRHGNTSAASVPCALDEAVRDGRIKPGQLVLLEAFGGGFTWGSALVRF

Take `CC(C)(COP(=O)(O)OP(=O)(O)OC[C@H]1O[C@@H](n2cnc3c(N)ncnc32)[C@H](O)[C@@H]1OP(=O)(O)O)[C@@H](O)C(=O)NCCC(=O)NCCOC(=O)CC(=O)O` [compound 3, malonyl-oxa(dethia)CoA]: in the series on FabH C112Q, the “Decarboxylation by C112Q mutant” value is given as “not detected” and the “stability with the FabH C112Q mutant” value is “relatively unreactive”. For the same molecule, in the series on FabH C112Q (setting [5]), the “Initial rate of hydrolysis to CoA or oxa(dethia)CoA” value (from here on “Initial rate of hydrolysis”) is given as ~ 0.001 min^−1. The “Decarboxylation by FabH” value in the series with E. coli FabH is on record as “not detected”. For the same molecule, the “Initial rate of hydrolysis” value in the series with E. coli FabH (setting [5]) is reported as ~ 0.001 min^−1. The Ki at FabH [1] (setting [6]) turned out to be 800 ± 400 µM.
In the case of `CC(C)(COP(=O)(O)OP(=O)(O)OC[C@H]1O[C@@H](n2cnc3c(N)ncnc32)[C@H](O)[C@@H]1OP(=O)(O)O)[C@@H](O)C(=O)NCCC(=O)NCCSC(=O)CC(=O)O` [malonyl-CoA], in series [2], the Non-enzymatic hydrolysis rate is ~ 0.0004 min^−1. The “Non-enzymatic hydrolysis rate at pH 8 relative to pH 6 and 7” value in series [2] is given as ~ 10 times higher. In the series on FabH C112Q, the “FabH C112Q decarboxylation relative to activated wild-type in the absence of acetyl-CoA” value came out at 5 times faster. Further, the “Initial rate of hydrolysis” value in the series on FabH C112Q (setting [7]) amounted to 0.0005 ± 0.0001 min⁻¹; in the series on FabH C112Q (setting [8]), 0.0007 ± 0.0001 min⁻¹; in the series on FabH C112Q (setting [5]), 0.0032 ± 0.0005 min⁻¹. For the same molecule, the “Initial rate, malonyl-CoA → acetyl-CoA/acetoacetyl-CoA” value in the series with FabH C112Q (pH 6, ~250 μM substrate) is 0.0060 ± 0.0006 min⁻¹; in the series with FabH C112Q (pH 7, ~250 μM substrate), 0.18 ± 0.01 min⁻¹; in the series with FabH C112Q (pH 8, ~250 μM substrate), 0.20 ± 0.02 min⁻¹; in the series on E. coli FabH (pH 7, ~250 μM substrate), “biphasic”; with E. coli FabH (pH 8, ~250 μM substrate, 25 μM acetyl-CoA to alleviate lag phase, value is for acetoacetyl-CoA appearance) it was 0.043 ± 0.001^‡ min^−1. In addition, the “time to reaction completion” value in the series with E. coli FabH (malonyl-CoA with priming acetyl-CoA (10% of malonyl-CoA)) is recorded as “about 250 min”; in the series on E. coli FabH (malonyl-CoA without priming acetyl-CoA (Figure 2J)) it was 620 min. Further, on FabH [1] (read-out: Ki (substrate inhibition), varying malonyl-CoA, acetyl-CoA at 125 μM, substrate inhibition model), the Ki amounted to 1900 ± 600 µM. Further, the Km at FabH [1] (setting [9]) was 2500 µM and ~2500 µM. The kcat at FabH [1] (setting [9]) came to 0.0983 ± 0.0233 s⁻¹.
Turning to `CC(C)(COP(=O)(O)OP(=O)(O)OC[C@H]1O[C@@H](n2cnc3c(N)ncnc32)[C@H](O)[C@@H]1OP(=O)(O)O)[C@@H](O)C(=O)NCCC(=O)NCCN` [compound 6, aza(dethia)CoA], at FabH [1] (setting [6]), the Ki stood at 900 ± 400 µM.
Turning to `CC(C)(COP(=O)(O)OP(=O)(O)OC[C@H]1O[C@@H](n2cnc3c(N)ncnc32)[C@H](O)[C@@H]1OP(=O)(O)O)[C@@H](O)C(=O)NCCC(=O)NCCOC(=O)CF` [fluoroacetyl-oxa(dethia)CoA], in series [3], the Kd is 90 µM.
The molecule `CC(C)(COP(=O)(O)OP(=O)(O)OC[C@H]1O[C@@H](n2cnc3c(N)ncnc32)[C@H](O)[C@@H]1OP(=O)(O)O)[C@@H](O)C(=O)NCCC(=O)NCCO` [compound 5, oxa(dethia)CoA] returned a Ki at FabH [1] (setting [6]) of 400 ± 200 µM.
Regarding `CC(C)(COP(=O)(O)OP(=O)(O)OC[C@H]1O[C@@H](n2cnc3c(N)ncnc32)[C@H](O)[C@@H]1OP(=O)(O)O)[C@@H](O)C(=O)NCCC(=O)NCCSC(=O)CF` [fluoroacetyl-CoA], the Km in series [3] is 8 µM.
Consider `CC(=O)SCCNC(=O)CCNC(=O)[C@H](O)C(C)(C)COP(=O)(O)OP(=O)(O)OC[C@H]1O[C@@H](n2cnc3c(N)ncnc32)[C@H](O)[C@@H]1OP(=O)(O)O` [acetyl-CoA], for which the Km was 8.5 µM in the series with citrate synthase; 40 µM at FabH [4] (read-out: apparent KM, pH 7.0, malonyl-S-ACP as acceptor ref 32, 35); 0.3 ± 0.1 µM on FabH [1] (read-out: apparent Km, varying acetyl-CoA with 125 μM malonyl-CoA); 210 µM with phosphotransacetylase. The Non-enzymatic hydrolysis rate in series [2] was ~ 0.0004 min^−1. Moreover, the “Non-enzymatic hydrolysis rate at pH 8 relative to pH 6 and 7” value in series [2] is listed as ~ 10 times higher. In addition, the “Initial rate of hydrolysis” value in the series with FabH C112Q (setting [7]) was 0.0005 ± 0.0001 min⁻¹; in the series with FabH C112Q (setting [8]), 0.0006 ± 0.0001 min⁻¹; in the series on FabH C112Q (setting [5]) it was 0.0030 ± 0.0001 min⁻¹; in the series with E. coli FabH (setting [7]), 0.0004 ± 0.0001 min⁻¹; in the series with E. coli FabH (setting [8]) it was 0.0010 ± 0.0001 min⁻¹; in the series on E. coli FabH (setting [5]), 0.0038 ± 0.0002 min⁻¹. The transthiolation rate on FabH [4] is 0.05 s⁻¹.
On to `CC(=O)NCCNC(=O)CCNC(=O)[C@H](O)C(C)(C)COP(=O)(O)OP(=O)(O)OC[C@H]1O[C@@H](n2cnc3c(N)ncnc32)[C@H](O)[C@@H]1OP(=O)(O)O` [compound 2, acetyl-aza(dethia)CoA], for which the Ki was 1.6 µM at citrate synthase, 800 µM on FabH [1] (competition with malonyl-CoA binding assumed), 800 ± 100 µM at FabH [1] (setting [6]) and 130 µM at phosphotransacetylase. Also, in the series on E. coli FabH, the “activating potential for FabH decarboxylation of malonyl-CoA to acetoacetyl-CoA” value is recorded as “not strong activators”. Moreover, the “effect on FabH activity with acetyl-CoA and malonyl-CoA as substrates” value on FabH [1] is “moderate inhibitor”.
Consider `CC(C)(COP(=O)(O)OP(=O)(O)OCC1OC(n2cnc3c(N)ncnc32)C(O)C1OP(=O)(O)O)C(O)C(=O)NCCC(=O)NCCNC(=O)CF` (stereo not drawn) [fluoroacetyl-aza(dethia)CoA], for which the Kd in series [3] was 1700 µM.
For the molecule `CC(=O)OCCNC(=O)CCNC(=O)[C@H](O)C(C)(C)COP(=O)(O)OP(=O)(O)OC[C@H]1O[C@@H](n2cnc3c(N)ncnc32)[C@H](O)[C@@H]1OP(=O)(O)O` [compound 1, acetyl-oxa(dethia)CoA], the results for the “Initial rate of hydrolysis” value with FabH C112Q (setting [5]) and in the series with E. coli FabH (setting [5]) were ~ 0.001 min^−1 and ~ 0.003 min^−1, respectively. Also, in the series with E. coli FabH, the “activating potential for FabH decarboxylation of malonyl-CoA to acetoacetyl-CoA” value is “not strong activators”. The “effect on FabH activity with acetyl-CoA and malonyl-CoA as substrates” value at FabH [1] is given as “slightly activating; also recorded: did not find inhibition; also recorded: a couple percent activation”. Besides, on FabH [1] (setting [6]), the Ki result was “weak activation”.
For `CC(C)(COP(=O)(O)OP(=O)(O)OC[C@H]1O[C@@H](n2cnc3c(N)ncnc32)[C@H](O)[C@@H]1OP(=O)(O)O)[C@@H](O)C(=O)NCCC(=O)NCCNC(=O)CC(=O)O` [compound 4, malonyl-aza(dethia)CoA], the “stability with the FabH C112Q mutant” value in the series on FabH C112Q is “completely stable”. The molecule further had a Ki on FabH [1] (setting [6]) of 700 ± 300 µM.
At FabH [1] (setting [6]), `CC(C)(COP(=O)(O)OP(=O)(O)OC[C@H]1O[C@@H](n2cnc3c(N)ncnc32)[C@H](O)[C@@H]1OP(=O)(O)O)[C@@H](O)C(=O)NCCC(=O)NCCS` [CoA] showed a Ki of 150 ± 70 µM.

The term Km denotes the concentration of substrate that gives half-maximal velocity. Broadly, the kcat is the maximal rate divided by the concentration of active sites. Usually Kd stands for the equilibrium constant for the complex coming apart.
